A short description of series [1]: LogDoct,7.4 by shake-flask method (1-octanol / 0.2 M phosphate buffer pH 7.4). Format: physicochemical. As to conditions: mean ± SD, read-out: LogDoct,7.4 (n = 3). As to the method:
The LogDoct,7.4 of analogues [^11C]1–3 and [^11C]SMW139 ([^11C]4) was determined using the shake-flask method (partitioning between 1-octanol and 0.2 M phosphate buffer (pH 7.4)). Determined LogDoct,7.4 values (Table 1) show the same trend as LogD values reported by Wilkinson et al.[10].
LogDoct,7.4 of [^11C]1–3 and [^11C]SMW139 was determined by the shake-flask method as described in the Supplementary Information.
Analytical HPLC chromatogram of [11C]SMW139 formulation (Platinum C18, MeCN/H2O/TFA 45:55:0.1, 1 […]
Determination of LogDoct,7.4
The distribution of radiolabelled compound between 1-octanol and 0.2 M phosphate buffer (pH = 7.4) was measured at room temperature. Briefly, 1 mL of a 20 MBq·mL-1 solution of radiolabelled compound in 0.2 M phosphate buffer (pH = 7.4) was mixed with 1 mL of 1-octanol for 1 min using a vortex mixer. After a settling period of 30 min, three samples of 100 μL were taken from both layers.
All samples were counted for radioactivity in a Wallac Universal Gammacounter 1282 (PerkinElmer, Waltham, MA, USA). The LogDoct,7.4 value was calculated according to LogDoct,7.4 = 10Log(Aoct/Abuffer), where Aoct and Abuffer represent average radioactivity counts of the three 1-octanol and the three […]
(1 picture or pasted object on this page, not shown here)

A short description of series [2]: Ex vivo metabolite analysis (plasma and brain) in healthy male Wistar rats. The arrangement: species or system rat. As to the method:
In vivo stability of analogues [^11C]1–3 and [^11C]SMW139 was assessed in healthy male Wistar rats at 15 and 45 minutes after injection of 30–40 MBq of formulated tracer. […] Results obtained in plasma correspond with previously reported stability results in rat liver microsomes. A higher level of intact tracer was found in brain (Table 3) for [^11C]1 and [^11C]SMW139 compared with [^11C]2 and [^11C]3. Despite optimisation of the extraction method, the percentage of total radioactivity that could be extracted from brain homogenates was not optimal for all four compounds (59 ± 6% for [^11C]1; 58 ± 7% for [^11C]2; 61 ± 4% for [^11C]3; 62 ± 3% for [^11C]SMW139). Therefore, based on its highest stability in plasma in vivo, [^11C]SMW139 was selected for further in vivo studies. As imaging studies were performed in female rats, plasma metabolites were also determined in two female rats, and no differences were found between plasma metabolism of [^11C]SMW139 in male and female rats (Table S1; Supplementary Information).
For each of the carbon-11 labelled benzamide analogues [^11C]1–3 and [^11C]SMW139, a biodistribution study and metabolite analysis in healthy male Wistar rats was performed, as described in detail in the Supplementary Information. Briefly, tracer distribution in blood, brain, and peripheral organs was measured at 5, 15, 30 and 45 min after intravenous injection of 13–23 MBq of formulated tracer. Metabolite analysis was performed at 15 and 45 min after intravenous injection of 30–40 MBq of formulated tracer in both blood plasma and brain. […]
Ex vivo metabolite analysis
Healthy male and female Wistar rats (254-440 g) were injected with 30-40 MBq (at start of experiment) of formulated tracer in the tail vein under isoflurane anaesthesia. Rats were sacrificed at 15 and 45 min (n = 3 per time point). Blood samples were obtained and the brain was excised. Blood samples were collected in heparin tubes (BD Vacutainer NH 119 I.U., 7 mL, BD Vacutainer Systems, Plymouth, UK) and centrifuged at 4,000 rpm for 5 min at 4 °C (Hettich Universal 32, Andreas Hettich GmbH & Co.KG, Tuttlingen, Germany). Plasma supernatant was separated from blood cells and loaded onto a tC18 Sep-Pak (Waters, Milford, MA, USA), followed by washing with 3 mL of water to obtain the polar fraction. The non-polar fraction was then eluted with 2 mL of MeOH and 1 mL of water and further analysed by HPLC. The brain was put in a falcon tube containing 4 mL MeCN/H2O (50:50 v/v) and homogenised with a disperser (IKA T18 B Ultra-Turrax, IKA®-Werke GmbH & Co.KG, Staufen, Germany) before centrifugation (5 min, 4,000 rpm, 20 °C, Hettich Universal 32). Supernatant was separated from brain precipitate and analysed by HPLC. Analytical HPLC was performed with Dionex (Sunnyvale, CA, USA) UltiMate 3000 HPLC equipment with Chromeleon software (version 6.8) on a Gemini C18 5-µm (10 x 250 mm) column (Phenomenex, Torrance, CA, USA) with gradient and a mixture of MeCN (A) and 0.1% DIPA in water (B) as eluent according to the following scheme: 0 min, […]
0.25 mL·min-1. All separate fractions were counted for radioactivity in a Wizard Gammacounter 1470 or 2480 (Wallac/PerkinElmer, Waltham, MA, USA).

Where “and” joins values, the source holds several entries; their conditions need not be identical. Equal entries are not always repeated.

As for `[11CH3]Oc1ccc(Cl)c(C(=O)NCC23CC4(F)CC(F)(CC(F)(C4)C2)C3)c1` [[^11C]SMW139], the logD in series [1] was 2.7 ± 0.01. The “Intact tracer (%)” value in series [2] (rat brain, 15 min p.i.) is 79 ± 1%; in series [2] (rat brain, 45 min p.i.), 66 ± 2%; in series [2] (rat plasma, 15 min p.i., male Wistar rats) it was 60 ± 1%; in series [2] (rat plasma, 45 min p.i., male Wistar rats), 42% and 42 ± 2%.

Values taken from paper PMC5920098, “Identification of the allosteric P2X7 receptor antagonist [^11C]SMW139 as a PET tracer of microglial activation” (Scientific Reports, 2018).
